In article PMC5049785, “Characterization of Novel Antimalarial Compound ACT-451840: Preclinical Assessment of Activity and Dose–Efficacy Modeling” (PLoS Medicine, 2016):
Entries after “also recorded” stand apart in the source; their conditions may differ. Where two headings read alike, the source gives them in different places.

What was measured:
[1] = test system: P. falciparum TM90C2A (Thailand); experiment: [3H]-hypoxanthine incorporation assay, TM90C2A; format: cell-based, Plasmodium falciparum; details: read-out: 50% inhibitory concentration (IC50), resistance CQ, PYR, MFQ, CYC, mean ± SD
[2] = test system: Cam3.II^C580Y parasites; experiment: microbe, parasite or virus in culture; format: cell-based, P. falciparum
Protocol: (§1) Parasites were cultured at Columbia University Medical Center (New York, USA) as previously described (1). Cam3.II and V1/S parasites, which had been genetically engineered to express K13 wild-type or K13 C580Y were seeded in a 96-well plate at 0.2% parasitemia and 1% hematocrit (2). […] Parasites were then stained with SYBR Green I (Invitrogen) and MitoTracker Deep Red (ThermoFisher Scientific) for 20 minutes at 37 °C (3). Stained parasites were detected using a BD Accuri 6 Flow Cytometer, and analyzed using FlowJo Software. IC50 values were determined by nonlinear regression using GraphPad Prism 6.0. For statistical analyses, Student’s t-tests were performed, and significance was set at P < 0.05.
(§2) Values indicate mean ± SEM, shown in nM. Significance determined by Student's t-test against parental lines.

[3] = test system: Cam3.II^rev parasites (K13 wild-type); experiment: microbe, parasite or virus in culture; format: cell-based, P. falciparum
Protocol: as §1, §2

[4] = test system: V1/S parasites (K13 wild-type); experiment: microbe, parasite or virus in culture; format: cell-based, P. falciparum
Protocol: as §1, §2

[5] = test system: V1/S^C580Y parasites; experiment: microbe, parasite or virus in culture; format: cell-based, P. falciparum
Protocol: as §1, §2

[6] = test system: P. falciparum strain 3D7 (MR4); experiment: In vitro parasite reduction ratio (PRR) assay; format: cell-based, Plasmodium falciparum
Protocol: In vitro PRR testing was conducted at GSK (Tres Cantos, Madrid, Spain) as previously described. The assay used the limiting dilution technique to quantify the number of parasites that remained viable after drug treatment. […] Parasites were treated for 120 h. Drug in culture medium was renewed daily over the entire treatment period. […] To quantify the number of viable parasites after treatment, 3-fold serial dilutions were used with the above mentioned samples after removing the drug. Four independent serial dilutions were performed with each sample to correct experimental variations. The number of viable parasites was determined after 21 and 28 d by counting the number of wells with growth using [^3H]-hypoxanthine incorporation. The number of viable parasites was back-calculated by using the formula X^n-1 where n is the number of wells able to render growth and X the dilution factor (when n = 0, number of viable parasites is estimated as zero). […] The parasite clearance time to kill 99.9% of the initial population was determined using a regression calculated on the log-linear phase of the parasite reduction, taking into account the lag phase.

[7] = test system: P. falciparum NF54 female gametocytes; experiment: P. falciparum dual gamete formation assay, female; format: cell-based, Plasmodium falciparum; details: up to a concentration of 20 μM, 24 h incubation
Protocol: Mature P. falciparum NF54 gametocytes were cultured at Imperial College London (London, United Kingdom), as previously described. […] Male gamete formation was quantified by computer-aided automated identification and counting of exflagellation centers. Female gamete formation was visualized by live immunofluorescence with a Cy3-conjugated antibody specific for Pfs25—a female gamete expressed surface protein. […] IC50 values were calculated using GraphPad Prism version 6 using the logarithmic versus normalized response (variable slope) function (Graphpad Software, San Diego, US).

[8] = test system: P. falciparum stage V gametocytes / oocysts in Anopheles stephensi; experiment: Standard membrane feeding assay, indirect mode; format: cell-based, Plasmodium falciparum; details: 24 h pre-exposure of gametocytes
Protocol: (§3) ACT-451840 was tested in the standard membrane feeding assay at TropIQ (Nijmegen, The Netherlands) in two modes, as previously described. In the direct mode, the compound was directly added to a bloodmeal containing mature stage V gametocytes that was fed to Anopheles stephensi mosquitoes. […] Seven days after the bloodmeal, the number of oocysts in the midgut was determined by microscopy for both modes. […] Vehicle control (0.1% DMSO) and positive control (10 μM dihydroartemisinin) were included. Twenty mosquitoes were dissected per sample, and oocyst load was analyzed per mosquito.

[9] = test system: P. falciparum oocysts in Anopheles stephensi; experiment: Standard membrane feeding assay, direct mode; format: cell-based, Plasmodium falciparum; details: compound added at the time of mosquito feeding, concentrations up to 1 μM
Protocol: as §3

[10] = Blood concentrations in P. berghei infected mice; format: in vivo; details: 1, 4, 24 h after first dose of triple-dose regimen
Protocol: To assess the PK parameters in infected mice, blood samples were taken at 1, 4, and 24 h after the first dose of a triple-dose regimen in the P. berghei efficacy studies. The employed doses were 15 or 30 mg/kg bis in die (b.i.d.), and 30, 50, 100, 300 mg/kg quaque die (q.d.) (n = 3/timepoint and dose).

[11] = Effect of formulation and food on oral pharmacokinetics in dogs; format: in vivo; details: for AUC0-∞ geometric mean / Cmax geometric mean: dogs
Protocol: The fumarate salt of ACT-451840 was administered orally at 10 mg/kg to fasted and fed male dogs (100 mg/dog, n = 4) as a suspension in an aqueous vehicle containing 0.5% (w/w) methylcellulose.

[12] = test system: P. falciparum; experiment: Prediction of human efficacious exposure
Description: In this PK/PD approach, the robust endpoint of animal survival and cure were chosen for clinical relevance. […] The alternative approach used to assess efficacious concentrations in vivo calculated the minimum inhibitory concentration and estimated a minimum parasiticidal concentration from modeling of the exposure–efficacy in the P. falciparum murine model.

[13] = Effect of formulation and food on oral pharmacokinetics in dogs; format: in vivo; details: for AUC increase versus suspension formulation / Cmax increase versus suspension formulation: fasted dogs; for AUC0-∞ geometric mean / Cmax geometric mean: dogs, 100 mg oral, fasted
[14] = cited from earlier work
[15] = 100 mg oral, aqueous suspension, fasted
[16] = fumarate salt 100 mg oral, aqueous suspension containing 0.5% methylcellulose, fasted
[17] = fumarate salt 100 mg oral, aqueous suspension containing 0.5% methylcellulose, fed
[18] = methylcellulose suspension, higher in fed

## CC(=O)N1CCN(c2ccc(CN(C(=O)/C=C/c3ccc(C(C)(C)C)cc3)[C@@H](Cc3ccccc3)C(=O)N3CCN(Cc4ccc(C#N)cc4)CC3)cc2)CC1 [ACT-451840]
[1]
  IC50: 1 ± 0.3 nM
[2]; Cam3.II^C580Y versus Cam3.II^rev
  IC50 fold change: 1.1
[2]; Cam3.II^C580Y, 72 h, mean ± SEM, read-out: IC50
  IC50: 2.3 ± 0.6 nM
[3]; Cam3.II^rev (parental reference line)
  IC50 fold change: 1.0
[3]; Cam3.II^rev, 72 h, mean ± SEM, read-out: IC50
  IC50: 2.1 ± 0.3 nM
[4]; V1/S (parental reference line)
  IC50 fold change: 1.0
[4]; V1/S, 72 h, mean ± SEM, read-out: IC50
  IC50: 0.21 ± 0.001 nM
[5]; V1/S^C580Y versus V1/S
  IC50 fold change: 0.9
[5]; V1/S^C580Y, 72 h, mean ± SEM, read-out: IC50
  IC50: 0.19 ± 0.015 nM
[6]; 10 x IC50
  lag phase in the killing curve: without lag phase
  parasite clearance time to kill 99.9% of the initial population: 28 h
[6]; 10 x IC50, decrease in viable parasites over 48 h
  log PRR: 4.4
[6]; asexual blood stage forms
  PRR: > 4 log per parasite cycle
[7]
  effect on functional viability of female gametocytes (Pfs25 expression): no activity; also recorded: no effect
[8]; oocysts counted 7 d after bloodmeal, read-out: IC50 oocyst development in the mosquito (oocyst intensity)
  IC50: 30 nM
[8]; read-out: IC50 prevalence of infection (number of infected mosquitoes)
  IC50: 104 nM
[9]
  activity against P. falciparum oocysts: did not show any activity
[10]
  blood concentration in infected mice compared to healthy mice: No significant difference
[11]; [15]
  AUC0-∞ geometric mean: 120 ng·h/mL
  Cmax geometric mean: 26.2 ng/mL
[11]; [16]
  AUC0-∞ geometric mean: 304 ng·h/mL
  Cmax geometric mean: 46.2 ng/mL
[11]; [17]
  AUC0-∞ geometric mean: 1720 ng·h/mL
  Cmax geometric mean: 171 ng/mL
[11]; [18]
  AUC fed dogs versus fasted dogs: 5.7 fold
  Cmax fed dogs versus fasted dogs: 3.7 fold
[12]; 227 x 23
  efficacious human total AUC, expressed in mouse blood: 5,250 ng*h/mL
[12]; corrected for blood/plasma ratio of 0.6
  predicted total efficacious human plasma AUC: 8,750 ng*h/mL
[12]; single dose of 500 mg, fed state, healthy subjects
  time for which the threshold of […] would be covered: 72 h
[13]; Phosal 53 MCT solution
  AUC increase versus suspension formulation: 5.0 fold
  Cmax increase versus suspension formulation: 4.3 fold
  AUC0-∞ geometric mean: 597 ng·h/mL
  Cmax geometric mean: 112 ng/mL
[13]; corn oil solution
  AUC increase versus suspension formulation: 7.8 fold
  Cmax increase versus suspension formulation: 8.1 fold
  AUC0-∞ geometric mean: 935 ng·h/mL
  Cmax geometric mean: 213 ng/mL
[14]; single 500 mg dose, fed human subjects
  exposure (AUC) observed in humans: 1,408 ng*h/mL
[14]; single ascending dose study
  terminal half-life: 34 h
[14]; single ascending dose, first-in-man study in healthy male participants
  tolerability: well tolerated
